Assay results taken from patent US20090105277A1, “AGENT FOR PREVENTING AND/OR TREATING MOVEMENT DISORDER” (KYOWA HAKKO KOGYO CO., LTD., priority 2005, published 2009).
“And” between values parts separate entries of the source, which are not always exact repeats. Equal entries are not always repeated.

What was measured:
[1] = test system: involuntary movement (e.g., dyskinesia) model rats; assay: Abnormal involuntary movements (AIMs) in involuntary movement (dyskinesia) model rats given repeated L-DOPA; assay type: in vivo, rat; conditions: for AIMs score axial, limb, orolingual, day 1-3 / AIMs score locomotive, day 1-3 / AIMs score axial, limb, orolingual, day 8-10 / AIMs score locomotive, day 8-10: oral, multiple doses; for onset of dyskinesia: combined administration with L-DOPA 10 mg/kg, compared to single administration of L-DOPA 20 mg/kg; for AIMs score axial, limb, orolingual, post value / AIMs score locomotive, post value: after 3-day drug withdrawal, L-DOPA (20 mg/kg) administered
Text: It is known that abnormal involuntary movements (AIMS) are developed by repeated administration of L-DOPA to the Parkinson's disease model rat prepared by the method described in Test Example 1, and the treated rat is used as a model of an involuntary movement such as dyskinesia, or the like. AIMs are classified into 4 kinds: (1) axial AIMs: deflection or torsion of head, neck, and trunk towards the contralateral side of lesioned side of the brain, (2) limb AIMs: movements of mainly forelimb on the contralateral side of the lesioned side of the brain (bending or extension in the perpendicular direction or movements in the horizontal•back and forth directions, opening and closure of the digits etc.); (3) orolingual AIMs: jaw movements, facial distortion, tongue protrusion (accompanying behavior of biting hair, skin of forelimb on the contralateral side of the lesioned side); and (4) locomotive AIMs: contralateral rotational behavior. Of these, locomotive AIMs are induced by dopamine agonists such as bromocriptine causing less dyskinesia, and are not suppressed by a drug having an […] activity such as amantadine. From these, locomotive AIMs have been reported to reflect normal movements improved by an antiparkinsonian effect (Neurobiology of Disease, 2002, vol. 10, p. 165-86; European Journal of Neuroscience, 2002, vol. 15, p. 120-132). […] The frequency of the above-mentioned four kinds of AIMs were scored in 0 to 4 points (0 point: no symptom, 1 point: appearance in less than 50% of observation time, 2 points: appearance in 50% or more of observation time, 3 points: symptom is maintained but prevented by strong sensory stimuli, 4 points: symptom is maintained and is not prevented by strong sensory stimuli). As for axial AIMs and limb AIMs, the amplitude thereof was scored in 1 to 4 points (axial AIMs; 1 point: deflection of head and neck is less than 30 degrees, 2 points: deflection of head and neck is not less than 30 degrees and less than 60 degrees, 3 points: deflection and torsion of head, neck and upper trunk is not less than 60 degrees and less than 90 degrees, 4 points: deflection and torsion of head, neck and trunk is 90 degrees or more and balance is lost, limb AIMs; 1 point: tiny oscillatory movements of limb and distal forelimb, 2 points: low amplitude but visible translocation of both distal and proximal limbs, 3 points: translocation of the whole limb with visible contraction of shoulder muscles, 4 points: strong movements of limb and shoulder at maximul amplitude). SD male rats (6-week-old, CHARLES RIVER LABORATORIES JAPAN, INC.) were used for the test. Parkinson's disease model rats were prepared according to the method described in Test Example 1. After a postoperative period of 6 days or longer, L-DOPA (20 mg/kg/day) was repetitively and orally administered once or twice per day to give a model rat of involuntary movement such as dyskinesia, or the like. […] The rats almost free of AIMs after the lapse of 1 week or longer from repetitive administration of L-DOPA were removed. As the group constitution, an L-DOPA 20 mg/kg and 0.5% MC solution administration group (single administration group) and an L-DOPA 10 mg/kg and test compound administration group (combined administration group) were used. The test compound was used in the same dose as in Test Example 1, whereby the conditions under which both the single administration group and the combined administration group show the same level of antiparkinsonian activity were set. After grouping, multiple doses of L-DOPA 20 mg/kg and 0.5% MC solution, and L-DOPA 10 mg/kg and test compound were orally administered, respectively. […] After the completion of administration, a 3-day drug withdrawal period was taken, and then L-DOPA (20 mg/kg) was administered. The AIMs score at this time was taken as the post value. The AIMs score of each group was expressed as mean±standard deviation of total AIMs score observed in individual rats for one day. […]

[2] = test system: 6-OHDA treated rats (Parkinson's disease model rat); assay: L-DOPA induced contralateral rotational behavior (antiparkinsonian effect) in the Parkinson's disease model rats; assay type: in vivo; conditions: for antiparkinsonian activity compared with single administration of L-DOPA 20 mg/kg: L-DOPA 10 mg/kg and test compound combined; for number of rotations: oral, total count in 3 hr; for effect on L-DOPA induced rotational behavior, namely antiparkinsonian activity: combined with L-DOPA 10 mg/kg, vs L-DOPA 10 mg/kg + 0.5% MC solution
[3] = L-DOPA (10 mg/kg) + compound 1 (30 mg/kg)
[4] = group L-DOPA (10 mg/kg) + compound 1 (30 mg/kg)
[5] = L-DOPA (10 mg/kg) + compound 2 (1 mg/kg)
[6] = group L-DOPA (10 mg/kg) + compound 2 (1 mg/kg)
[7] = L-DOPA (20 mg/kg) + 0.5% MC solution (single administration)
[8] = group L-DOPA (20 mg/kg) + 0.5% MC solution

CC(C)(O)CCN1CCN(c2cc3nc(-c4ccco4)nn3c(N)n2)CC1 [compound 1]
AIMs score axial, limb, orolingual, day 1-3 [1, 3]: 78.3 ± 17.2
AIMs score locomotive, day 1-3 [1, 3]: 16.3 ± 3.5
AIMs score axial, limb, orolingual, day 8-10 [1, 3]: 105.0 ± 24.1
AIMs score locomotive, day 8-10 [1, 3]: 16.4 ± 3.9
onset of dyskinesia [1]: significant suppression
AIMs score axial, limb, orolingual, post value [1, 4]: 106.9 ± 14.0
AIMs score locomotive, post value [1, 4]: 17.1 ± 3.1
antiparkinsonian activity compared with single administration of L-DOPA 20 mg/kg [2]: same level
number of rotations ([2]; L-DOPA (10 mg/kg) + compound 1 (30 mg/kg), mean±standard deviation): 1732.2 ± 305.2
effect on L-DOPA induced rotational behavior, namely antiparkinsonian activity [2]: significantly enhanced

COCCOc1ccc(N2CCN(CCn3ncc4c3nc(N)n3nc(-c5ccco5)nc43)CC2)cc1 [compound 2]
AIMs score axial, limb, orolingual, day 1-3 [1, 5]: 146.4 ± 13.3
AIMs score locomotive, day 1-3 [1, 5]: 14.8 ± 1.7
AIMs score axial, limb, orolingual, day 8-10 [1, 5]: 117.5 ± 15.5
AIMs score locomotive, day 8-10 [1, 5]: 14.4 ± 1.7
onset of dyskinesia [1]: significant suppression
AIMs score axial, limb, orolingual, post value [1, 6]: 159.8 ± 24.7
AIMs score locomotive, post value [1, 6]: 13.1 ± 1.7
antiparkinsonian activity compared with single administration of L-DOPA 20 mg/kg [2]: same level
number of rotations ([2]; L-DOPA (10 mg/kg) + compound 2 (1 mg/kg), mean±standard deviation): 1543.5 ± 263.2
effect on L-DOPA induced rotational behavior, namely antiparkinsonian activity [2]: significantly enhanced

N[C@@H](Cc1ccc(O)c(O)c1)C(=O)O [L-DOPA, reference compound]
AIMs score axial, limb, orolingual, day 1-3 [1, 7]: 272.9 ± 25.9 and 271.9 ± 12.6
AIMs score locomotive, day 1-3 [1, 7]: 16.0 ± 2.1 and 12.4 ± 2.6
AIMs score axial, limb, orolingual, day 8-10 [1, 7]: 291.7 ± 16.7 and 232.4 ± 26.2
AIMs score locomotive, day 8-10 [1, 7]: 16.1 ± 2.1 and 13.6 ± 1.7
AIMs score axial, limb, orolingual, post value [1, 8]: 129.3 ± 14.3 and 139.1 ± 12.6
AIMs score locomotive, post value [1, 8]: 16.3 ± 2.8 and 15.0 ± 1.4
number of rotations ([2]; L-DOPA (10 mg/kg) + 0.5% MC solution (single administration)): 534.3 ± 123.4 and 367.3 ± 140.6
